Experiments:
[1] = male, human, in vivo
[2] = Safety and tolerability of inhaled treprostinil sodium (adverse events, laboratory, vital signs, ECG, spirometry), 14 healthy male subjects
[3] = Venous plasma pharmacokinetics of inhaled treprostinil via AERx Essence or Nebu-Tec Optineb, 14 healthy male subjects; conditions: for AUC(0-inf): AUCINF—obs
Procedure: On each of two dosing days, eligible subjects underwent dosing with ^99mTc-labeled treprostinil sodium using either the AERx Essence System or the Nebu-Tec Optineb nebulizer. Following their initial study dose, subjects underwent a washout period of approximately 48 hours before completing a second (crossover) study dose.
Immediately following each study dose, subjects underwent gamma scintigraphy and multiple samplings of venous blood to characterize treprostinil lung deposition and plasma pharmacokinetics.
To evaluate treprostinil plasma pharmacokinetics, 16 venous blood samples were drawn into 7.5 ml Potassium EDTA monovette tubes following each study dose (i.e., Essence and Optineb). Sampling occurred approximately 1 hour prior to dosing and at +2, +3, +5, +7, +10, +15, +20, +30, +60, +90, +120, +180, +240, +300, and +360 minutes after the start of each study dose. Thus, a total of 32 blood samples (˜250 mL) were collected for pharmacokinetic assessment over the two dosing days. Immediately upon sampling the sample was identified with a bar coded label bearing details of study number, subject number, sampling time point, sample type and a unique 9 digit identification number. The sample was separated by centrifugation at 1500×g and 4° C. for 10 minutes. Two equal aliquots of plasma/serum were transferred to 2 polypropylene tubes labelled identically to the original blood sample and stored at approximately −20° C. pending analysis. The time at which samples were taken, received into the separating room and placed in the freezer was recorded in the study documentation.
The pharmacokinetic parameters Cmax, AUCT and AUCI were normalised for the dose delivered to the lung, as determined from the scintigraphy data (Tables 14.2.1.5 & 14.2.1.6).

[4] = dose-normalised for the calculated dose to lung
[5] = male, human, plasma, inhaled, 19.58 μg, via Optineb, Median
[6] = male, human, plasma, inhaled, 26 μg, via AERx, Median

With CCCCC[C@H](O)CC[C@@H]1[C@H]2Cc3cccc(OCC(=O)[O-])c3C[C@H]2C[C@H]1O.[Na+] [treprostinil, (1R,2R,3aS,9aS)-[[2,3,3a,4,9,9a-Hexahydro-2-hydroxyl-1-[(3S)-3-hydroxyoctyl]-1H-benz[f]inden-5-yl]oxy]acetic acid monosodium salt] the “Adverse events considered possibly related to the study medication” value [1] was 15, the “Adverse events considered probably related to study medication” value [1] was 11 and the “Adverse events considered unlikely related to the study medication” value [1] was 1. The “Adverse events recorded as mild in intensity” value [1] was 23, the “Adverse events recorded as moderate in intensity” value [1] was 4 and the “Number of Subjects (% brackets) with CHEST DISCOMFORT” value [1] was 2 (14.3). The “Number of Subjects (% brackets) with COUGH” value [1] was 6 (42.9), the “Number of Subjects with CHEST DISCOMFORT, relationship POSSIBLE” value [1] was 1 and the “Number of Subjects with CHEST DISCOMFORT, relationship PROBABLE” value [1] was 1. For the same compound, the “Number of Subjects with CHEST DISCOMFORT, relationship UNLIKELY” value [1] was 0, the “Number of Subjects with COUGH, relationship UNLIKELY” value [1] was 0 and the “Number of Subjects with DIZZINESS, relationship POSSIBLE” value [1] was 2. The “Number of Subjects with DIZZINESS, relationship PROBABLE” value [1] was 0, the “Number of Subjects with DIZZINESS, relationship UNLIKELY” value [1] was 0 and the “Number of Subjects with DRY THROAT, relationship POSSIBLE” value [1] was 1. For the same compound, the “Number of Subjects with DRY THROAT, relationship PROBABLE” value [1] was 0, the “Number of Subjects with DRY THROAT, relationship UNLIKELY” value [1] was 0 and the “Number of Subjects with DYSPNOEA, relationship POSSIBLE” value [1] was 0. For the same compound, the “Number of Subjects with DYSPNOEA, relationship PROBABLE” value [1] was 1, the “Number of Subjects with DYSPNOEA, relationship UNLIKELY” value [1] was 0 and the “Number of Subjects with HEADACHE, relationship PROBABLE” value [1] was 0. For the same compound, the “Number of Subjects with HEADACHE, relationship UNLIKELY” value [1] was 0, the “Number of Subjects with PHARYNG[…], relationship POSSIBLE” value [1] was 1 and the “Number of Subjects with PHARYNG[…], relationship PROBABLE” value [1] was 0. The “Number of Subjects with PHARYNG[…], relationship UNLIKELY” value [1] was 0, the “Number of Subjects with PLEURITIC PAIN, relationship POSSIBLE” value [1] was 0 and the “Number of Subjects with PLEURITIC PAIN, relationship PROBABLE” value [1] was 1. For the same compound, the “Number of Subjects with PLEURITIC PAIN, relationship UNLIKELY” value [1] was 0, the “Number of Subjects with SYNCOPE VASOVAGAL, relationship POSSIBLE” value [1] was 1 and the “Number of Subjects with SYNCOPE VASOVAGAL, relationship PROBABLE” value [1] was 0. The “Number of Subjects with SYNCOPE VASOVAGAL, relationship UNLIKELY” value [1] was 0, the “Total treatment emergent adverse events” value [1] was 27 and the “Vaso-vegal episode, duration” value [1] was 14 min. For the same compound, the “Vaso-vegal episode, time of occurrence after administration” value [1] was 22 min, the “Changes in laboratory parameters” value ([2]; biochemistry, hematology, urinalysis) was “no clinically-significant changes” and the “Serious Adverse Events (SAE's) or Suspected Unexpected Serious Adverse Reactions (SUSAR's)” value ([2]; both devices) was “no Serious Adverse Events”. The “Tolerability in healthy subjects” value ([2]; for inhalation) was “well-tolerated”, the “Changes in laboratory parameters, physical examination, vital signs, respiratory function or ECGs” value ([2]; human, in vivo) was “no clinically-significant changes” and the “Changes in vital signs (blood pressure, pulse and oral temperature)” value ([2]; human, in vivo, po) was “no clinically-significant changes”. For the same compound, the “Number of Subjects (% brackets) with […]” value ([2]; via AERx Essence) was 0, the “Number of Subjects (% brackets) with […]” value ([2]; via Nebu-Tec Optineb) was 1 (7.1) and the “Number of Subjects with […], relationship POSSIBLE” value ([2]; via Nebu-Tec Optineb) was 0. The “Number of Subjects with […], relationship PROBABLE” value ([2]; via Nebu-Tec Optineb) was 0, the “Number of Subjects with […], relationship UNLIKELY” value ([2]; via Nebu-Tec Optineb) was 1 and the “Tmax, Median Diff. AERx vs Nebu-Tec” value ([3]; Wilcoxon Matched Pairs Test) was 11.5 min. The “Dose-normalised AUCI, AERx/Nebu-Tec Ratio of geometric LS means” value [3, 4] was 101.79%, the “Dose-normalised AUCT, AERx/Nebu-Tec Ratio of geometric LS means” value [3, 4] was 103.24% and the “Dose-normalised Cmax, AERx/Nebu-Tec Ratio of geometric LS means” value ([3]; dose-normalised for the calculated dose to lung, monosodium salt) was 61.51%. For the same compound, the Tmax ([3]; human, plasma, inhaled, one subject in the nebulizer arm with delayed Tmax) was about 20 min, the AUC ([3]; male, human, plasma, inhaled, 19.58 μg) was 0.53 ng·h/mL and the AUC(0-inf) ([3]; male, human, plasma, inhaled, 19.58 μg, via Optineb, GM) was 0.533 ng·h/mL. For the same compound, the AUC(0-inf) [3, 5] was 0.546 ng·h/mL, the AUC(0-t) ([3]; male, human, plasma, inhaled, 19.58 μg, AUCT, via Nebu-Tec, Geometric LS means) was 0.51 ng·h/mL and the AUC(0-t) ([3]; male, human, plasma, inhaled, 19.58 μg, AUClast, via Optineb, GM) was 0.51 ng·h/mL. It also gave an AUC(0-t) ([3]; male, human, plasma, inhaled, 19.58 μg, AUClast, via Optineb, Median) of 0.531 ng·h/mL, a Cmax ([3]; male, human, plasma, inhaled, 19.58 μg, via Nebu-Tec, Geometric LS means) of 0.71 ng/mL and a Cmax ([3]; male, human, plasma, inhaled, 19.58 μg, via Optineb, GM (geometric mean)) of 0.707 ng/mL. The Cmax [3, 5] was 0.696 ng/mL, the half-life ([3]; male, human, plasma, inhaled, 19.58 μg, T1/2, via Optineb, GM) was 38.5 min and the half-life ([3]; male, human, plasma, inhaled, 19.58 μg, T1/2, via Optineb, Median) was 37.3 min. For the same compound, the Tmax ([3]; male, human, plasma, inhaled, 19.58 μg, via Nebu-Tec, Median) was 8.5 min, the Tmax [3, 5] was 8.52 min and the AUC(0-inf) ([3]; male, human, plasma, inhaled, 26 μg, via AERx, GM) was 0.731 ng·h/mL. It also gave an AUC(0-inf) [3, 6] of 0.767 ng·h/mL, an AUC(0-t) ([3]; male, human, plasma, inhaled, 26 μg, AUClast, via AERx, GM) of 0.709 ng·h/mL and an AUC(0-t) ([3]; male, human, plasma, inhaled, 26 μg, AUClast, via AERx, Median) of 0.749 ng·h/mL. For the same compound, the Cmax ([3]; male, human, plasma, inhaled, 26 μg, via AERx, GM (geometric mean)) was 0.586 ng/mL, the Cmax [3, 6] was 0.548 ng/mL and the half-life ([3]; male, human, plasma, inhaled, 26 μg, T1/2, via AERx, GM) was 46.3 min. It also gave a half-life ([3]; male, human, plasma, inhaled, 26 μg, T1/2, via AERx, Median) of 43.6 min.
